Experimental data reported in US8802597B2, “Herbicidal pyrimidines” (E I du Pont de Nemours and Company, priority 2003, dated 2014).

Key:
Test in all cases: Test C pre/postemergence
Assay type in all cases: in vivo
[1] = tested on: bermudagrass (Cynodon dactylon); conditions: for Bermudagrass plant response rating: scale 0 to 100 (0 no effect, 100 complete control)
In short: (§1)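 Greenhouse herbicide screen, visual readout. Compound in solvent/surfactant applied preemergence at planting or postemergence to 1- to 4-leaf plants; assessed at 12–14 days on a 0–100 control scale.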

[2] = tested on: goosegrass (Eleusine indica); conditions: for Goosegrass plant response rating: scale 0 to 100 (0 no effect, 100 complete control)
In short: as §1

[3] = tested on: cocklebur (Xanthium strumarium); conditions: for Cocklebur plant response rating: scale 0 to 100 (0 no effect, 100 complete control)
In short: as §1

[4] = tested on: velvetleaf (Abutilon theophrasti); conditions: for Velvetleaf plant response rating: scale 0 to 100 (0 no effect, 100 complete control)
In short: as §1

[5] = tested on: crabgrass (Digitaria sanguinalis); conditions: for Crabgrass plant response rating: scale 0 to 100 (0 no effect, 100 complete control)
In short: as §1

[6] = tested on: eastern black nightshade (Solanum ptycanthum); conditions: Preemergence
In short: as §1

[7] = tested on: lambsquarters (Chenopodium album); conditions: for Lambsquarters plant response rating: scale 0 to 100 (0 no effect, 100 complete control)
In short: as §1

corn (Zea mays) = conditions: for Corn plant response rating: scale 0 to 100 (0 no effect, 100 complete control)
In short: as §1

[8] = Preemergence, 16 g ai/ha, scale 0 to 100, 0 no effect, 100 complete control
[9] = Preemergence, 31 g ai/ha, scale 0 to 100, 0 no effect, 100 complete control
[10] = Preemergence, 62 g ai/ha, scale 0 to 100, 0 no effect, 100 complete control
[11] = Preemergence, 125 g ai/ha, scale 0 to 100
[12] = Postemergence, 250 g ai/ha, scale 0 to 100
[13] = Postemergence, 500 g ai/ha, scale 0 to 100
[14] = Preemergence, 250 g ai/ha, scale 0 to 100
[15] = Preemergence, 500 g ai/ha, scale 0 to 100

CCOC(=O)C(OC(C)=O)c1nc(C2CC2)nc(N)c1Br (centres unmarked) [Compound 47]
Plant response rating (scale of 0 to 100), Bermudagrass ([1]; Postemergence, 16 g ai/ha): 0
Plant response rating (scale of 0 to 100), Bermudagrass ([1]; Postemergence, 31 g ai/ha): 0
Bermudagrass plant response rating ([1]; Postemergence, 62 g ai/ha): 0
Bermudagrass plant response rating ([1]; Postemergence, 125 g ai/ha): 15
Plant response rating, Bermudagrass [1, 8]: 0
Plant response rating, Bermudagrass [1, 9]: 0
Plant response rating, Bermudagrass [1, 10]: 0
Plant response rating, Bermudagrass [1, 11]: 95
Plant response rating (scale of 0 to 100), Goosegrass ([2]; Postemergence, 16 g ai/ha): 0
Plant response rating (scale of 0 to 100), Goosegrass ([2]; Postemergence, 31 g ai/ha): 0
Goosegrass plant response rating ([2]; Postemergence, 62 g ai/ha): 0
Goosegrass plant response rating ([2]; Postemergence, 125 g ai/ha): 0
Plant response rating, Goosegrass [2, 8]: 0
Plant response rating, Goosegrass [2, 9]: 45
Plant response rating, Goosegrass [2, 10]: 85
Plant response rating, Goosegrass [2, 11]: 90
Plant response rating (scale of 0 to 100), Cocklebur ([3]; Postemergence, 16 g ai/ha): 35
Plant response rating (scale of 0 to 100), Cocklebur ([3]; Postemergence, 31 g ai/ha): 45
Cocklebur plant response rating ([3]; Postemergence, 62 g ai/ha): 60
Cocklebur plant response rating ([3]; Postemergence, 125 g ai/ha): 65
Plant response rating, Cocklebur [3, 8]: 0
Plant response rating, Cocklebur [3, 9]: 0
Plant response rating, Cocklebur [3, 10]: 70
Plant response rating, Cocklebur [3, 11]: 75
Plant response rating (scale of 0 to 100), Velvetleaf ([4]; Postemergence, 16 g ai/ha): 0
Plant response rating (scale of 0 to 100), Velvetleaf ([4]; Postemergence, 31 g ai/ha): 0
Velvetleaf plant response rating ([4]; Postemergence, 62 g ai/ha): 0
Velvetleaf plant response rating ([4]; Postemergence, 125 g ai/ha): 0
Plant response rating, Velvetleaf [4, 8]: 0
Plant response rating, Velvetleaf [4, 9]: 20
Plant response rating, Velvetleaf [4, 10]: 20
Plant response rating, Velvetleaf [4, 11]: 50
Plant response rating (scale of 0 to 100), Crabgrass ([5]; Postemergence, 16 g ai/ha): 0
Plant response rating (scale of 0 to 100), Crabgrass ([5]; Postemergence, 31 g ai/ha): 0
Crabgrass plant response rating ([5]; Postemergence, 62 g ai/ha): 0
Crabgrass plant response rating ([5]; Postemergence, 125 g ai/ha): 20
Plant response rating, Crabgrass [5, 8]: 20
Plant response rating, Crabgrass [5, 9]: 100
Plant response rating, Crabgrass [5, 10]: 100
Plant response rating, Crabgrass [5, 11]: 100
Plant response rating, Nightshade ([6]; 16 g ai/ha, scale 0 to 100, 0 no effect, 100 complete control): 80
Plant response rating, Nightshade ([6]; 31 g ai/ha, scale 0 to 100, 0 no effect, 100 complete control): 85
Plant response rating, Nightshade ([6]; 62 g ai/ha, scale 0 to 100, 0 no effect, 100 complete control): 95
Plant response rating, Nightshade ([6]; 125 g ai/ha, scale 0 to 100): 100
Plant response rating (scale of 0 to 100), Lambsquarters ([7]; Postemergence, 16 g ai/ha): 0
Plant response rating (scale of 0 to 100), Lambsquarters ([7]; Postemergence, 31 g ai/ha): 45
Lambsquarters plant response rating ([7]; Postemergence, 62 g ai/ha): 70
Lambsquarters plant response rating ([7]; Postemergence, 125 g ai/ha): 80
Plant response rating, Lambsquarters [7, 8]: 0
Plant response rating, Lambsquarters [7, 10]: 85
Plant response rating, Lambsquarters [7, 11]: 95
Plant response rating (scale of 0 to 100), Corn (corn (Zea mays); Postemergence, 16 g ai/ha): 0
Plant response rating (scale of 0 to 100), Corn (corn (Zea mays); Postemergence, 31 g ai/ha): 0
Corn plant response rating (corn (Zea mays); Postemergence, 62 g ai/ha): 0
Corn plant response rating (corn (Zea mays); Postemergence, 125 g ai/ha): 0
Plant response rating, Corn (corn (Zea mays); [8]): 0
Plant response rating, Corn (corn (Zea mays); [9]): 0
Plant response rating, Corn (corn (Zea mays); [10]): 0
Plant response rating, Corn (corn (Zea mays); [11]): 0

COC(=O)CNc1nc(C2CC2)nc(C(=O)OC)c1Br [Compound 10]
Bermudagrass plant response rating ([1]; Postemergence, 62 g ai/ha): 0
Plant response rating, Bermudagrass [1, 12]: 0
Plant response rating, Bermudagrass [1, 13]: 0
Plant response rating, Bermudagrass ([1]; Postemergence, 125 g ai/ha, scale 0 to 100): 0
Plant response rating, Bermudagrass [1, 10]: 0
Plant response rating, Bermudagrass [1, 11]: 0
Plant response rating, Bermudagrass [1, 14]: 0
Plant response rating, Bermudagrass [1, 15]: 0
Goosegrass plant response rating ([2]; Postemergence, 62 g ai/ha): 0
Goosegrass plant response rating ([2]; Postemergence, 125 g ai/ha): 0
Plant response rating, Goosegrass [2, 12]: 0
Plant response rating, Goosegrass [2, 13]: 0
Plant response rating, Goosegrass [2, 10]: 0
Plant response rating, Goosegrass [2, 11]: 0
Plant response rating, Goosegrass [2, 14]: 0
Plant response rating, Goosegrass [2, 15]: 0
Cocklebur plant response rating ([3]; Postemergence, 62 g ai/ha): 0
Cocklebur plant response rating ([3]; Postemergence, 125 g ai/ha): 15
Plant response rating, Cocklebur [3, 12]: 60
Plant response rating, Cocklebur [3, 13]: 75
Plant response rating, Cocklebur [3, 11]: 0
Plant response rating, Cocklebur [3, 14]: 0
Plant response rating, Cocklebur [3, 15]: 100
Velvetleaf plant response rating ([4]; Postemergence, 62 g ai/ha): 65
Velvetleaf plant response rating ([4]; Postemergence, 125 g ai/ha): 70
Plant response rating, Velvetleaf [4, 12]: 80
Plant response rating, Velvetleaf [4, 13]: 90
Plant response rating, Velvetleaf [4, 10]: 0
Plant response rating, Velvetleaf [4, 11]: 0
Plant response rating, Velvetleaf [4, 14]: 0
Plant response rating, Velvetleaf [4, 15]: 60
Crabgrass plant response rating ([5]; Postemergence, 62 g ai/ha): 0
Crabgrass plant response rating ([5]; Postemergence, 125 g ai/ha): 0
Plant response rating, Crabgrass [5, 12]: 0
Plant response rating, Crabgrass [5, 13]: 0
Plant response rating, Crabgrass [5, 10]: 0
Plant response rating, Crabgrass [5, 11]: 0
Plant response rating, Crabgrass [5, 14]: 0
Plant response rating, Crabgrass [5, 15]: 0
Plant response rating, Nightshade ([6]; 250 g ai/ha, scale 0 to 100): 20
Plant response rating, Nightshade ([6]; 500 g ai/ha, scale 0 to 100): 95
Lambsquarters plant response rating ([7]; Postemergence, 62 g ai/ha): 60
Lambsquarters plant response rating ([7]; Postemergence, 125 g ai/ha): 80
Plant response rating, Lambsquarters [7, 12]: 90
Plant response rating, Lambsquarters [7, 13]: 100
Plant response rating, Lambsquarters [7, 10]: 0
Plant response rating, Lambsquarters [7, 11]: 50
Plant response rating, Lambsquarters [7, 14]: 65
Plant response rating, Lambsquarters [7, 15]: 95
Corn plant response rating (corn (Zea mays); Postemergence, 62 g ai/ha): 0
Corn plant response rating (corn (Zea mays); Postemergence, 125 g ai/ha): 0
Plant response rating, Corn (corn (Zea mays); [12]): 0
Plant response rating, Corn (corn (Zea mays); [13]): 0
Plant response rating, Corn (corn (Zea mays); [10]): 0
Plant response rating, Corn (corn (Zea mays); [11]): 0
Plant response rating, Corn (corn (Zea mays); [14]): 0
Plant response rating, Corn (corn (Zea mays); [15]): 0
